These molecules were tested against T1, Androgen Receptor (AR) (Homo sapiens, UniProt P10275, T878A) (assay: LNCaP Androgen Receptor Down-regulation Cell Assay (immunofluorescence end point)). Conditions: LNCaP prostate carcinoma cells, compound incubation 20-22 hours, 50% reduction of the AR signal; read-out: Androgen Receptor Down-regulation Assay (a) IC50/μM.
T1 construct: cell based immuno-fluorescence assay using the LNCaP prostate epithelial cell line; endogenous in cells; host or cells: LNCaP clone FGC (ATCC CRL-1740)
T1 sequence (P10275 1-920 T878A): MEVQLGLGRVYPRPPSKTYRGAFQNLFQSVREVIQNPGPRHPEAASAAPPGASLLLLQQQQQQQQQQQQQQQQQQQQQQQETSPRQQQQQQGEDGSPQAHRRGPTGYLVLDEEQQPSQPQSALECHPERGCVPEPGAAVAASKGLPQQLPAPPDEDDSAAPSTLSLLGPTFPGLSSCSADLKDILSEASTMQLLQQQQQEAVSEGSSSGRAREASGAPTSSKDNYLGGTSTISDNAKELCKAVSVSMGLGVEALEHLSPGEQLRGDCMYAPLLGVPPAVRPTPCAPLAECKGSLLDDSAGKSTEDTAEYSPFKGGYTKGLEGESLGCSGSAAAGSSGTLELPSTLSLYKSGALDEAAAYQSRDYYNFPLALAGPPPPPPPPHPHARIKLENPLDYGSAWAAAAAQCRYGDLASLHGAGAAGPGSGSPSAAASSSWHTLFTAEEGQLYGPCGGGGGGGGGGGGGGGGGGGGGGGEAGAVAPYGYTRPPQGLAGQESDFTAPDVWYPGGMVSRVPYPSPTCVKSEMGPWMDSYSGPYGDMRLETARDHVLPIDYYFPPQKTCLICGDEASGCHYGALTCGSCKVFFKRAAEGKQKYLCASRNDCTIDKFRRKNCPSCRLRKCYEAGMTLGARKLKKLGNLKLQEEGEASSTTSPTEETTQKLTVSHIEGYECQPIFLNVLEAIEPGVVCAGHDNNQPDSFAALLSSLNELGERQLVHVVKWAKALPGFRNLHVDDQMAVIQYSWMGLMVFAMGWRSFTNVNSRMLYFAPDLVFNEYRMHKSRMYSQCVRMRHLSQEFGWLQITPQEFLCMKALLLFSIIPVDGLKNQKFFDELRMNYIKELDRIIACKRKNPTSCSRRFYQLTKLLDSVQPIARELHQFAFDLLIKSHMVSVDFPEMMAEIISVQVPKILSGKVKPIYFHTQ
Type: cell-based
Summary of the method: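 AR loss reported as IC50 from curve fits of fluorescence dose-response data, with AR immunostained and read by laser-scanning cytometry. Compound exposure was 20-22 h at 37° C in LNCaP cells grown in 5% charcoal-stripped FBS and plated overnight beforehand.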

Structure (SMILES) | DC50
CC(=O)Nc1cccc(C2CCN(c3ccc4nnc(C(F)(F)F)n4n3)CC2)c1 [Example 655, N-[3-[1-[3-(trifluoromethyl)[1,2,4]triazolo[4,3-b]pyridazin-6-yl]piperidin-4-yl]phenyl]acetamide] | 1.1 µM
CN1CCN(CCCC(=O)Nc2cccc(C3CCN(c4ccc5nnc(C(F)(F)F)n5n4)CC3)c2)CC1 [Example 659, 4-(4-methylpiperazin-1-yl)-N-[3-[1-[3-(trifluoromethyl)-[1,2,4]triazolo[4,3-b]pyridazin-6-yl]piperidin-4-yl]phenyl]butanamide] | 1 µM
O=C(CCCN1CCCC1)Nc1cccc(C2CCN(c3ccc4nnc(C(F)(F)F)n4n3)CC2)c1 [Example 660] | 0.63 µM
O=C(CCCN1CCOCC1)Nc1cccc(C2CCN(c3ccc4nnc(C(F)(F)F)n4n3)CC2)c1 [Example 661] | 0.65 µM
COCCCC(=O)Nc1cccc(C2CCN(c3ccc4nnc(C(F)(F)F)n4n3)CC2)c1 [Example 662, 4-methoxy-N-[3-[1-(3-(trifluoromethyl)-[1,2,4]triazolo[4,3-b]pyridazin-6-yl)piperidin-4-yl]phenyl]butanamide] | 5.4 µM
CN1CCC(C(=O)Nc2ccc(C3CCN(c4ccc5nnc(C(F)(F)F)n5n4)CC3)cc2)CC1 [Example 663] | 2.7 µM
COCC(=O)Nc1ccc(C2CCN(c3ccc4nnc(C(F)(F)F)n4n3)CC2)cc1 [Example 664] | 3.6 µM
CN1CCN(CCCC(=O)Nc2ccc(C3CCN(c4ccc5nnc(C(F)(F)F)n5n4)CC3)cc2)CC1 [Example 666] | 0.94 µM
O=C(CCCN1CCCC1)Nc1ccc(C2CCN(c3ccc4nnc(C(F)(F)F)n4n3)CC2)cc1 [Example 667] | 1 µM
O=C(CCCN1CCOCC1)Nc1ccc(C2CCN(c3ccc4nnc(C(F)(F)F)n4n3)CC2)cc1 [Example 668] | 1.1 µM
COCCCC(=O)Nc1ccc(C2CCN(c3ccc4nnc(C(F)(F)F)n4n3)CC2)cc1 [Example 669] | 0.6 µM
CN(C)CCCOc1cccc(C2CCN(c3ccc4nnc(C(F)(F)F)n4n3)CC2)c1 [Example 670] | 0.67 µM
FC(F)(F)c1nnc2ccc(N3CCC(c4cccc(OCCN5CCCC5)c4)CC3)nn12 [Example 671] | 1.6 µM
FC(F)(F)c1nnc2ccc(N3CCC(c4cccc(OCCN5CCNCC5)c4)CC3)nn12 [Example 672] | 0.58 µM
FC(F)(F)c1nnc2ccc(N3CCC(c4cccc(OCCCN5CCNCC5)c4)CC3)nn12 [Example 673] | 0.73 µM
Cc1cc(COc2cccc(C3CCN(c4ccc5nnc(C(F)(F)F)n5n4)CC3)c2)no1 [Example 674] | 1.1 µM
CN(C)CCOc1cccc(C2CCN(c3ccc4nnc(C(F)(F)F)n4n3)CC2)c1 [Example 675] | 1.5 µM
FC(F)(F)c1nnc2ccc(N3CCC(c4cccc(OCCN5CCOCC5)c4)CC3)nn12 [Example 676] | 0.56 µM
CN1CCC(Oc2cccc(C3CCN(c4ccc5nnc(C(F)(F)F)n5n4)CC3)c2)CC1 [Example 677] | 4.5 µM
FC(F)(F)c1nnc2ccc(N3CCC(c4cccc(OCc5cnco5)c4)CC3)nn12 [Example 680] | 0.6 µM

Structure (SMILES) | DC50
Cn1nccc1CCOc1cccc(C2CCN(c3ccc4nnc(C(F)(F)F)n4n3)CC2)c1 [Example 682] | 0.58 µM
COCCOc1cccc(C2CCN(c3ccc4nnc(C(F)(F)F)n4n3)CC2)c1 [Example 684] | 0.69 µM
CN(CCO)C(=O)c1cccc(OC2CCN(c3ccc4nnc(C(F)(F)F)n4n3)CC2)c1 [Example 685] | 5.7 µM
O=C(NCCN1CCCC1)c1cccc(OC2CCN(c3ccc4nnc(C(F)(F)F)n4n3)CC2)c1 [Example 686] | 4.2 µM
CN1CCN(C(=O)c2cccc(OC3CCN(c4ccc5nnc(C(F)(F)F)n5n4)CC3)c2)CC1 [Example 687] | 3.8 µM
O=C(c1cccc(OC2CCN(c3ccc4nnc(C(F)(F)F)n4n3)CC2)c1)N1CCNCC1 [Example 688] | 6.6 µM
COCCNC(=O)c1cccc(OC2CCN(c3ccc4nnc(C(F)(F)F)n4n3)CC2)c1 [Example 689] | 4.1 µM
O=C(c1cccc(OC2CCN(c3ccc4nnc(C(F)(F)F)n4n3)CC2)c1)N1CC[C@@H](O)C1 [Example 691] | > 28 µM
O=C(c1cccc(OC2CCN(c3ccc4nnc(C(F)(F)F)n4n3)CC2)c1)N1CCCC1 [Example 692] | 4.2 µM
O=C(c1cccc(OC2CCN(c3ccc4nnc(C(F)(F)F)n4n3)CC2)c1)N1CCOCC1 [Example 693] | 2.3 µM
CNC(=O)c1cccc(OC2CCN(c3ccc4nnc(C(F)(F)F)n4n3)CC2)c1 [Example 694] | 3.2 µM
CCNC(=O)c1cccc(OC2CCN(c3ccc4nnc(C(F)(F)F)n4n3)CC2)c1 [Example 695] | 3.3 µM
CN(C)CCNC(=O)c1cccc(OC2CCN(c3ccc4nnc(C(F)(F)F)n4n3)CC2)c1 [Example 696] | 4.2 µM
O=C(NCCO)c1cccc(OC2CCN(c3ccc4nnc(C(F)(F)F)n4n3)CC2)c1 [Example 697] | > 22 µM
O=C(NCCN1CCOCC1)c1cccc(OC2CCN(c3ccc4nnc(C(F)(F)F)n4n3)CC2)c1 [Example 698] | 5.6 µM
COCCN(C)C(=O)c1cccc(OC2CCN(c3ccc4nnc(C(F)(F)F)n4n3)CC2)c1 [Example 699] | 2.1 µM
O=C(c1cccc(OC2CCN(c3ccc4nnc(C(F)(F)F)n4n3)CC2)c1)N1CC[C@H](O)C1 [Example 700] | 7.1 µM
Cc1cc(CNC(=O)c2cccc(OC3CCN(c4ccc5nnc(C(F)(F)F)n5n4)CC3)c2)no1 [Example 702] | > 12 µM
CN1CCC(NC(=O)c2cccc(OC3CCN(c4ccc5nnc(C(F)(F)F)n5n4)CC3)c2)CC1 [Example 703] | 5.5 µM
CN1CCN(CCNC(=O)c2cccc(OC3CCN(c4ccc5nnc(C(F)(F)F)n5n4)CC3)c2)CC1 [Example 704] | 4.2 µM

Structure (SMILES) | DC50
O=C(NCCn1cccn1)c1cccc(OC2CCN(c3ccc4nnc(C(F)(F)F)n4n3)CC2)c1 [Example 705] | 5.3 µM
Cn1ccc(CNC(=O)c2cccc(OC3CCN(c4ccc5nnc(C(F)(F)F)n5n4)CC3)c2)n1 [Example 706] | 2.9 µM
O=C(NCc1cocn1)c1cccc(OC2CCN(c3ccc4nnc(C(F)(F)F)n4n3)CC2)c1 [Example 707] | 7.9 µM
CN1CCN(CC(=O)Nc2ccc(C3CCN(c4ccc5nnc(C(F)(F)F)n5n4)CC3)cc2)CC1 [Example 708, 2-(4-methylpiperazin-1-yl)-N-[4-[1-[3-(trifluoromethyl)[1,2,4]triazolo[4,3-b]pyridazin-6-yl]piperidin-4-yl]phenyl]acetamide] | 6.2 µM
O=C(CN1CCCC1)Nc1ccc(C2CCN(c3ccc4nnc(C(F)(F)F)n4n3)CC2)cc1 [Example 709] | 1.7 µM
O=C(CN1CCOCC1)Nc1ccc(C2CCN(c3ccc4nnc(C(F)(F)F)n4n3)CC2)cc1 [Example 710] | 2.1 µM
CN1CCN(CC(=O)Nc2cccc(C3CCN(c4ccc5nnc(C(F)(F)F)n5n4)CC3)c2)CC1 [Example 711] | 2.5 µM
O=C(CN1CCCC1)Nc1cccc(C2CCN(c3ccc4nnc(C(F)(F)F)n4n3)CC2)c1 [Example 712] | 3 µM
O=C(CN1CCOCC1)Nc1cccc(C2CCN(c3ccc4nnc(C(F)(F)F)n4n3)CC2)c1 [Example 713] | 0.81 µM
FC(F)(F)c1nnc2ccc(N3CCC(Oc4ncc(Cl)cn4)CC3)nn12 [Example 714] | > 9.9 µM
FC(F)(F)c1nnc2ccc(N3CCC(Oc4cccc(Cl)n4)CC3)nn12 [Example 716] | 0.81 µM
FC(F)(F)c1nnc2ccc(N3CCC(Oc4cccnc4Br)CC3)nn12 [Example 717] | 2.9 µM
FC(F)(F)c1nnc2ccc(N3CCC(Oc4cccnc4)CC3)nn12 [Example 718] | 3.6 µM
FC(F)(F)c1ccc(OC2CCN(c3ccc4nnc(C(F)(F)F)n4n3)CC2)nc1 [Example 719] | 3.5 µM
FC(F)(F)c1nnc2ccc(N3CCC(Oc4ccc(Cl)nc4)CC3)nn12 [Example 720] | 2.7 µM
FC(F)(F)c1nnc2ccc(N3CCC(Oc4ccc(Br)cn4)CC3)nn12 [Example 721] | 2.9 µM
FC(F)(F)c1nnc2ccc(N3CCC(Oc4cncc(Br)c4)CC3)nn12 [Example 722] | 4.1 µM
FC(F)(F)c1nnc2ccc(N3CCC(Oc4ncccc4Br)CC3)nn12 [Example 723] | 0.9 µM
FC(F)(F)c1nnc2ccc(N3CCC(Oc4ccc(Cl)cc4)CC3)nn12 [Example 724] | 0.69 µM
CN(C)CCCOc1ccc(C2CCN(c3ccc4nnc(C(F)(F)F)n4n3)CC2)cc1 [Example 726] | 1.4 µM

Reference: patent US8003649B2 (AstraZeneca AB, priority 2007, dated 2011)
